Laboratory results reported in patent US20110200556A1, “CHEMOPREVENTION OF HEAD AND NECK SQUAMOUS CELL CARCINOMAS” (THE UNITED STATES OF AMERICA, AS REPRESENTED BY TH E …, priority 2008, published 2011).

Test system: tongue and oral mucosa
Assay: Oral chemical carcinogenesis by 4NQO in the drinking water
Format: in vivo, C57B1/6 mice
Conditions: 4NQO 50 μg/ml in drinking water, week 12
Procedure: Water was changed weekly.
Methods: Animal studies were carried out according to NIH-approved protocols, in compliance with the Guide for the Care and Use of Laboratory Animals. Female C57B1/6 mice (Harlan Sprague-Dawley, National Cancer Institute at Frederick, Md., USA) 4-6 weeks old and weighing 18 to 20 g, were housed in appropriate sterile filter-capped cages, and fed and given water ad libitum. […] All animals underwent a bi-weekly full oral cavity examination under anesthesia (2-5% Isoflurane, Baxter, Deerfield, Ill., mixed with oxygen), and any observed pathological changes were documented. Animals were euthanized either on week 16 or week 22 for tissue retrieval. Complete autopsies were performed, and tissues were immediately collected and fixed in buffered zinc-formalin (Z-fix, Anatech, Mich.) at room temperature for 12 h. The tissues were then transferred to alcohol 70%, processed for paraffin embedding for histopathological diagnosis and further studies. […] Animals were monitored daily for general behavioral abnormalities, signs of toxicity, illness or discomfort. Animals were euthanized on week 22, and tissue retrieval was performed as described above.
Water was replaced weekly, and mice were monitored prior to each water change. […] All animals underwent a bi-weekly full oral cavity examination, and any pathological changes were documented. […]

O=[N+]([O-])c1cc[n+]([O-])c2ccccc12 [4NQO, 4-nitroquinoline-1 oxide]
mice that developed tumors in the tongue and other areas of the oral mucosa: around 50%
